What all share (assay type): cell-based
Series [1] in a line: Counterscreen MT4-LTR-Luc. To be noted: human. The source says:
(§1) Counterscreen cell lines included a Huh-7 hepatoma cell line containing a human cytomegalovirus major immediate-early promoter-Luc construct (Huh7-CMV-Luc) and an MT4 T-cell line containing a long terminal repeat-Luc reporter (MT4-LTR-Luc).

Series [2] concerns HCV type 1b replicon (Huh-7 luc/neo cells). The experiment in a line: HCV replicon assay, stable transfection (Huh-Luc, luciferase). To be noted: Hepatitis C virus, Huh-7, 72 h, three days incubation, average of all tests. The text has this:
The compounds of formula (I) were examined for inhibitory activity in the HCV replicon. This cellular assay is based on a bicistronic expression construct, as described by Lohmann et al. (Science (1999) 285: 110-113; Journal of Virology (2003) 77: 3007-3019) with modifications described by Krieger et al. (Journal of Virology (2001) 75: 4614-4624), and Lohmann et al. (Journal of Virology (2003) 77: 3007-3019) for genotype 1b and by Yi et al. (Journal of Virology (2004) 78: 7904-7915) for genotype 1a, in a multi-target screening strategy.
The method was as follows. The assay utilized the stably transfected cell line Huh-7 luc/neo (hereafter referred to as Huh-Luc). This cell line harbors an RNA encoding a bicistronic expression construct comprising the wild type NS3-NS5B regions of HCV type 1b translated from an Internal Ribosome Entry Site (IRES) from encephalomyocarditis virus (EMCV), preceded by a reporter portion (FfL-luciferase), and a selectable marker portion (neoR, neomycine phosphotransferase). The construct is flanked by 5′ and 3′ NTRs (non-translated regions) from HCV type 1b. Continued culture of the replicon cells in the presence of G418 (neoR) is dependent on the replication of the HCV RNA. The stably transfected replicon cells that replicate HCV RNA autonomously and to high levels, encoding inter alia luciferase, were used for screening the antiviral compounds.
The replicon cells were plated in 384 well plates in the presence of the test and control compounds which were added in various concentrations. Following an incubation of three days, HCV replication was measured by assaying luciferase activity (using standard luciferase assay substrates and reagents and a Perkin Elmer ViewLux™ ultraHTS microplate imager). Replicon cells in the control cultures have high luciferase expression in the absence of any inhibitor. The inhibitory activity of the compound was monitored on the Huh-Luc cells, enabling a dose-response curve for each test compound. EC50 values were then calculated, which represent the amount of compound required to decrease the level of detected luciferase activity by 50%, or more specifically, to reduce the ability of the genetically linked HCV replicon RNA to replicate.
Where a compound of formula (I) was tested more than once in the replicon assay, the average of all test results is given in this Table 2.
A general note: A replicon is a self-replicating genome or part of one, used to study replication in cells.

Series [3] has as its system HCV genotype 1b Con1 replicon (Huh-7 lunet cells). As to the kind of experiment: HCV replicon assay, transient transfection, genotype 1b. The following applies: Hepatitis C virus, 48 h, genotype 1b Con1, two days incubation, luciferase. The text has this: (§2) In a transient set-up, a Huh-7 lunet hepatoma cell line was transiently transfected with an autonomously replicating RNA encoding a bi-cistronic expression construct. This construct comprises a firefly luciferase reporter gene preceding the NS3-NS5B subgenomic region of HCV (genotype 1a H77 or 1b Con1). Translation of the HCV subgenomic region is mediated by an internal ribosome entry site of encephalomyocarditis virus. The construct is furthermore flanked by 5′ and 3′ untranslated regions of HCV (genotype 1a H77 or 1b Con 1, respectively), which allow for replication of the RNA.
(§3) Cells were plated in 384 well plates in the presence of test and control compounds, which were added in various concentrations. Following an incubation of two days, replication of the HCV subgenomic replicon RNA was measured by assaying luciferase activity (using standard luciferase assay substrates and reagents and a Perkin Elmer ViewLux™ ultraHTS microplate imager). HCV subgenomic replicon containing cells in the control cultures have high luciferase expression in the absence of any inhibitor. The inhibitory activity of the compound was monitored, enabling a dose-response curve for each test compound. EC50 values were then calculated, which represent the amount of compound required to decrease the level of detected luciferase activity by 50%, or more specifically, to reduce the ability of the genetically linked HCV subgenomic RNA to replicate.
(§4) Where a compound of formula (I) was tested more than once in the transient replicon assay, the average of all test results is given in Table 3.

Series [4] deals with HCV genotype 1b replicon NS5A Y93H. As to the kind of experiment: Transient HCV 1b replicon, NS5A mutant Y93H. The following applies: Hepatitis C virus, read-out: EC50 Y93H.
Excerpt: as §2
(§5) In addition to the wild-type constructs, site-directed mutations were introduced into the transient HCV genotype 1b replicon in the gene encoding for the non-structural protein 5A (NS5A). More precisely, amino acid residues 28, 30, 31 and 93 in NS5A were independently altered.
as §3

For series [5], the system named is HCV genotype 1a H77 replicon (Huh-7 lunet cells). The experiment in a line: HCV replicon assay, transient transfection, genotype 1a. To be noted: Hepatitis C virus, 48 h, genotype 1a H77, two days incubation, luciferase.
Excerpt: as §2, §3, §4

Series [6] is described as follows: Counterscreen Huh7-CMV-Luc. To be noted: human.
Excerpt: as §1
(The purpose of a counterscreen is to sort out artefacts and off-target activity.)

The subject of series [7] is HCV genotype 1b replicon NS5A R30H. As to the kind of experiment: Transient HCV 1b replicon, NS5A mutant R30H. The following applies: Hepatitis C virus, read-out: EC50 R30H.
Excerpt: as §2, §5, §3

Series [8] deals with HCV genotype 1b replicon NS5A L31V. As to the kind of experiment: Transient HCV 1b replicon, NS5A mutant L31V. The following applies: Hepatitis C virus, read-out: EC50 L31V.
Excerpt: as §2, §5, §3

The test system of series [9] is HCV genotype 1b replicon NS5A L31F. As to the kind of experiment: Transient HCV 1b replicon, NS5A mutant L31F. The following applies: Hepatitis C virus, read-out: EC50 L31F.
Excerpt: as §2, §5, §3

Series [10] deals with HCV genotype 1b replicon NS5A L28T. The experiment in a line: Transient HCV 1b replicon, NS5A mutant L28T. To be noted: Hepatitis C virus, read-out: EC50 L28T.
Excerpt: as §2, §5, §3

Series [11] relates to HCV genotype 1b replicon NS5A Y93C. As to the kind of experiment: Transient HCV 1b replicon, NS5A mutant Y93C. The following applies: Hepatitis C virus, read-out: EC50 Y93C.
Excerpt: as §2, §5, §3

With `COC(=O)NC(C(=O)N1CCC[C@H]1c1ncc(-c2ccc3cc(-c4ccc5nc([C@@H]6CCCN6C(=O)C(NC(=O)OC)C6CCOCC6)[nH]c5c4)ccc3c2)[nH]1)C1CCOCC1` (mixture of isomers) [Compound 12], the CC50 in series [1] and in series [6] was over 984 nM in each case. For the same compound, the EC50 in series [2] worked out at 0.08 nM; in [3], 0.11 nM; in series [4] it was 0.275 nM; in series [5] it was 0.268 nM.

As to `COC(=O)NC(C(=O)N1CCC[C@H]1c1ncc(-c2ccc3cc(-c4ccc5nc([C@@H]6CCCN6C(=O)C(NC(=O)OC)c6ccccc6)[nH]c5c4)ccc3c2)[nH]1)c1ccccc1` (mixture of isomers) [Compound 14], the half-maximal cytotoxic concentration (CC50) in series [1] and in series [6] was over 984 nM in each case. The EC50 came to 0.004 nM in series [2], 0.004 nM in series [3], 0.093 nM in [4] and 0.836 nM in series [5].

In the case of `COC(=O)N[C@H](C(=O)N1CCC[C@H]1c1ncc(-c2ccc(-c3ccc4nc([C@@H]5CCCN5C(=O)[C@@H](NC(=O)OC)C(C)C)[nH]c4c3)cc2)[nH]1)C(C)C` [Compound 1], the concentration for a half-maximal effect (EC50) in series [7] stood at 0.6 nM; in series [8] it was 1.06 nM; in [9], 0.775 nM; in series [10], 4.12 nM; in series [2] it was 0.058 nM; in [3], 0.058 nM. Moreover, the EC50 is 1.33 nM in series [4] and 0.076 nM in [11]. In [1], this compound displayed a CC50 of over 984 nM.

In the case of `COC(=O)N[C@H](C(=O)N1CCC[C@H]1c1ncc(-c2ccc(-c3ccc4nc([C@@H]5CCCN5C(=O)[C@@H](NC(=O)OC)[C@@H](C)OC)[nH]c4c3)cc2)[nH]1)[C@@H](C)OC` [Compound 2], the EC50 in series [7] turned out to be 2.69 nM; in series [8], 1.38 nM; in series [9] it was 1.81 nM; in [10] it was 9.05 nM; in series [2] it was 0.54 nM; in series [3] it was 0.909 nM. The EC50 in [4] was found to be 2.88 nM; in series [11] it was 0.655 nM. Moreover, the CC50 in series [1] and in series [6] was over 984 nM in each case.

With `COC(=O)N[C@H](C(=O)N1CCC[C@H]1c1ncc(-c2ccc3cc(-c4ccc5nc([C@@H]6CCCN6C(=O)[C@@H](NC(=O)OC)C6CC6)[nH]c5c4)ccc3c2)[nH]1)C1CC1` [Compound 5], the CC50 in [1] and in series [6] was over 984 nM in each case. Besides, the EC50 in series [2] came out at 0.039 nM; in [3] it was 0.058 nM; in series [4], 10.8 nM.

Turning to `COC(=O)N[C@H](C(=O)N1CCC[C@H]1c1ncc(-c2ccc3cc(-c4ccc5nc([C@@H]6CCCN6C(=O)[C@@H](NC(=O)OC)[C@@H](C)O)[nH]c5c4)ccc3c2)[nH]1)[C@@H](C)O` [Compound 6], the CC50 in [1] and in [6] was over 984 nM each time. Besides, the EC50 in series [2] worked out at 0.132 nM; in [3] it was 0.142 nM; in [4], 1.01 nM; in [5], 0.181 nM.

Consider `COC(=O)N[C@@H](CC(C)C)C(=O)N1CCC[C@H]1c1ncc(-c2ccc3cc(-c4ccc5nc([C@@H]6CCCN6C(=O)[C@H](CC(C)C)NC(=O)OC)[nH]c5c4)ccc3c2)[nH]1` [Compound 7], for which the CC50 in [1] and in series [6] was over 984 nM throughout. Besides, the EC50 in series [2] amounted to 0.005 nM; in series [3], 0.003 nM; in series [4], 3.41 nM; in series [5], 0.989 nM.

Regarding `COCC[C@H](NC(=O)OC)C(=O)N1CCC[C@H]1c1ncc(-c2ccc3cc(-c4ccc5nc([C@@H]6CCCN6C(=O)[C@H](CCOC)NC(=O)OC)[nH]c5c4)ccc3c2)[nH]1` [Compound 10], the CC50 in [1] and in series [6] was over 984 nM each time. Moreover, the EC50 was found to be 0.029 nM in series [2], 0.057 nM in [3] and 1.03 nM in series [4].

For the compound `COC(=O)N[C@H](C(=O)N1CCC[C@H]1c1ncc(-c2ccc3cc(-c4ccc5nc([C@@H]6CCCN6C(=O)[C@@H](NC(=O)OC)C6CCCC6)[nH]c5c4)ccc3c2)[nH]1)C1CCCC1` [Compound 15], the CC50 in series [1] and in [6] was over 984 nM throughout. For the same compound, the EC50 in series [2] was 0.003 nM; in [3] it was 0.003 nM; in series [4], 1.19 nM; in series [5] it was 0.277 nM.

For the compound `CC[C@@H](C)[C@H](NC(=O)OC)C(=O)N1CCC[C@H]1c1ncc(-c2ccc3cc(-c4ccc5nc([C@@H]6CCCN6C(=O)[C@@H](NC(=O)OC)[C@H](C)CC)[nH]c5c4)ccc3c2)[nH]1` [Compound 19], the CC50 in [1] and in [6] was over 984 nM each time. Also, the EC50 in series [2] turned out to be 0.003 nM; in series [3] it was 0.002 nM; in [4], 5.19 nM; in series [5], 0.471 nM.

For `CC[C@H](C)[C@H](NC(=O)OC)C(=O)N1CCC[C@H]1c1nc2cc(-c3ccc4cc(-c5cnc([C@H]6CCCN6C(=O)[C@@H](NC(=O)OC)[C@@H](C)OC)[nH]5)ccc4c3)ccc2[nH]1` [Compound 20], the values for the cytotoxic concentration (CC50) in series [1] and in series [6] were 9410 nM and 8160 nM, respectively. The EC50 in [2] came out at 2.3 nM; in series [3] it was 4.1 nM; in series [4], 336 nM; in series [5] it was 324 nM.

For `CC[C@H](C)[C@H](NC(=O)OC)C(=O)N1CCC[C@@H]1c1ncc(-c2ccc3cc(-c4ccc5[nH]c([C@@H]6CCCN6C(=O)[C@@H](NC(=O)OC)[C@@H](C)OC)nc5c4)ccc3c2)[nH]1` [Compound 21], the results for the CC50 in series [1] and in series [6] were 9140 nM and 8160 nM, respectively. Further, the EC50 in [2] came out at 2.2 nM; in series [3], 2.9 nM; in [4], 275 nM; in series [5], 482 nM.

For orientation: CC50 means the concentration giving 50% cytotoxicity. In general, EC50 refers to the concentration that produces a half-maximal response.

Source of the values: patent publication US9427428B2, “Benzimidazole-imidazole derivatives” (Janssen Sciences Ireland UC, priority 2009, dated 2016).
